Key:
[1] = test system: PAXF1657 control empty vector cell line; test: 7-day proliferation assay, PAXF1657 control empty vector cell line (Example 9); format: cell-based; conditions: 168 h; 7-day compound treatment, CellTiter-Glo
Summary of the method: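 Cells plated at 500 per well and attached overnight. Next, 10-point inhibitor series added (30 μM-0.0002 μM, 0.3% DMSO) and a day-0 viability plate read. Then, after 3 days, medium with fresh compound. Finally, viability after 4 more days via CellTiter-Glo.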

[2] = test system: PAXF1657 cell line stably overexpressing GRK2; test: 7-day proliferation assay, PAXF1657 stably overexpressing GRK2 (Example 9); format: cell-based; conditions: for GI50: 168 h, 7-day compound treatment, CellTiter-Glo; for Ratio GRK2 overexpressing cells/Empty vector cells: GI50 in GRK2 overexpressing PAXF1657 over GI50 in empty vector PAXF1657
Method: In order to identify compounds specific for GRK2, we generated two isogenic cell line pairs of the pancreatic cancer cell line PAXF1657, a pair of cells stably overexpressing GRK2 cDNA or the control empty vector and a cell line pair of PAXF1657 GRK2 knockout clonal cells versus non-targeting control clonal cells.
Proliferation Assay: Cellular anti-proliferative activity of compounds was assessed by using the pancreatic cancer cell line, PAXF1657, stably overexpressing GRK2 cDNA or the control empty vector, as well as the parental urinary bladder cancer cell line, 5637. In addition, we also took advantage of GRK2 knockout cell lines that were generated via CRISPR. Cell lines were seeded into tissue culture treated, white-walled, 96-well plates at a density of 500 cells/well in RPMI1640 media supplemented with 10% H.I. FBS and penicillin/streptomycin. Plates were incubated overnight at 37° C., 5% CO2 to allow cells to adhere to the wells. GRK2 inhibitors were added to the cells using a 10-point dilution series with a final concentration ranging from 30 μM-0.0002 μM in 0.3% DMSO. At the time of compound addition, a set of plates, that were not treated with compounds, were collected and cell viability was measured using CellTiter-Glo (Promega). CellTiter-Glo reagent was added to the designed plates and luminescence was measuring using a Biotek Synergy plate reader. The compound treated cells were incubated for 3 days at 37° C., 5% CO2. The media was then aspirated from each well and replaced with fresh media containing GRK2 inhibitors. The compound treated cells were then incubated for an additional 4 days at 37° C., 5% CO2. Cell viability was assessed and at end of the 7-day compound treatment by CellTiterGlo.

GRK2 [3] = target: T1, GRK2 (Homo sapiens, UniProt P25098); test: ADPGlo GRK2 Inhibition Assay (Example 8); format: biochemical; conditions: 7.5 nM GRK2, 10 μM ATP, ADP-Glo; read-out: GRK2 IC50 (nM) (Example 8)
T1 construct: purchased SignalChem A14-10G
T1 sequence (P25098 1-689): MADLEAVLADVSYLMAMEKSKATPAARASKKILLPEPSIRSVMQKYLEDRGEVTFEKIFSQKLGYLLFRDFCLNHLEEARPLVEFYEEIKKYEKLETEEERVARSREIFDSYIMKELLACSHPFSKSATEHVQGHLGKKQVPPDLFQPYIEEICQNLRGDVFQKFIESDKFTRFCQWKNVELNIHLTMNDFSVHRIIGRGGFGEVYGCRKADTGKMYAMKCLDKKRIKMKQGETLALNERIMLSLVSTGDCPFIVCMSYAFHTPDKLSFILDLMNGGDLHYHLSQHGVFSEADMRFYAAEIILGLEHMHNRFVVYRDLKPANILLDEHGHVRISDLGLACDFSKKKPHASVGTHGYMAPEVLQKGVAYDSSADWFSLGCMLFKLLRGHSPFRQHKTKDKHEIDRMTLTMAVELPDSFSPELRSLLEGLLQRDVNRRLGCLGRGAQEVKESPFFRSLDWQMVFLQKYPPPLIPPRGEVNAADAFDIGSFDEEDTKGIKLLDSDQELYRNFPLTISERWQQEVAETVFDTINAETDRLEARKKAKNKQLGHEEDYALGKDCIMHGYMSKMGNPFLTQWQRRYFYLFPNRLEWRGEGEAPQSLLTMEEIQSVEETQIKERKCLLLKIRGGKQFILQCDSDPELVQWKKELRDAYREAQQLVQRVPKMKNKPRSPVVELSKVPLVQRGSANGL
Summary of the method: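 GRK2 (15 nM 2× enzyme solution) was preincubated 15 min with compound, then reacted 180 min at room temperature with 2× mix of 20 μM ATP plus GRKtide in HEPES pH 7.5, MgCl2, Tween-20, DTT. ADP was detected by ADP-Glo luminescence. Percent inhibition was normalised to enzyme and no-enzyme controls, with dose-response curves from threefold dilutions starting at 100 μM.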

GRK2 [4] = target: T1, GRK2; test: GRK2 Inhibition Assay (TR-FRET, Example 7); format: biochemical; conditions: 1 nM GRK2, 7 μM ATP, TR-FRET; read-out: GRK2 IC50 (nM) (Example 7)
Summary of the method: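 GRK2 at 1 nM preincubated 30 min with compound, then reacted 90 min at room temperature with 7 μM ATP and 50 nM ULight-TopoIIα in HEPES/MgCl2/DTT buffer. Phosphorylation detected by TR-FRET after Eu anti-TopoIIα and EDTA addition, 60 min.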

Cn1c(CNc2cccc(C(=O)NCc3cccc4c3OCC4)c2)nnc1-c1ccncn1 [compound 1, N-((2,3-dihydrobenzofuran-7-yl)methyl)-3-(((4-methyl-5-(pyrimidin-4-yl)-4H-1,2,4-triazol-3-yl)methyl)amino)benzamide]
GI50 [1]: 1.97 µM
GI50 [2]: 24.3 µM
Ratio GRK2 overexpressing cells/Empty vector cells [2]: 12.34
IC50 (GRK2 [3]): 27 nM
IC50 (GRK2 [4]): 4.7 nM

Cn1c(CNc2cccc(C(=O)N[C@H]3CCOc4ccccc43)c2)nnc1-c1ccncn1 [compound 3]
GI50 [1]: 1.16 µM
GI50 [2]: 8.61 µM
Ratio GRK2 overexpressing cells/Empty vector cells [2]: 7.42
IC50 (GRK2 [3]): 18 nM
IC50 (GRK2 [4]): 10 nM

COc1ccc(CNC(=O)c2cccc(NCc3nnc(-c4ccncn4)n3C)c2)c(F)c1 [compound 5]
GI50 [1]: 1.51 µM
GI50 [2]: 10.3 µM
Ratio GRK2 overexpressing cells/Empty vector cells [2]: 6.79
IC50 (GRK2 [3]): 19 nM
IC50 (GRK2 [4]): 5.4 nM
